Test results taken from publication doi:10.1101/2025.03.24.645127v1 (biorxiv, 2025).

Target: T1, GPR119 (Homo sapiens, UniProt Q8TDV5)
T1 sequence (Q8TDV5 1-335): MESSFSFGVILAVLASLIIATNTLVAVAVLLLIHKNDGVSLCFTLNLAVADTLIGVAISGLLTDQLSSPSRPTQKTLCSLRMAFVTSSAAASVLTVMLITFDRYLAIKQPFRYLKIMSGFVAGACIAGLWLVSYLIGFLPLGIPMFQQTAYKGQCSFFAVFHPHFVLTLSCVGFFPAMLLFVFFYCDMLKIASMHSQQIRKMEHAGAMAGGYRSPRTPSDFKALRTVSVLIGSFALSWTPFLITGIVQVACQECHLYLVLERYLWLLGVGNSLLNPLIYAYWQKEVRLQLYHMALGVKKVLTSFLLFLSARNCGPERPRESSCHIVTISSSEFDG
Assay: cAMP GloSensor assay in CHO-K1
Type: cell-based

EC50: ~3 µM
SMILES: COC(=O)N[C@H](C(=O)N[C@@H](Cc1ccccc1)[C@@H](O)CN(Cc1ccc(-c2ccccn2)cc1)NC(=O)[C@@H](NC(=O)OC)C(C)(C)C)C(C)(C)C [atazanavir]
